Consider 18 compounds from US5240717A, “Process for mannose and mannose isomerase production using mannose isomerase-producing pseudomonas” (Amano Pharmaceutical Co., Ltd., priority 1990, dated 1993).

In the first data set the test system is mannose isomerase. Kind of data set: mannose isomerase activity of the enzyme of the invention (optimum conditions, substrates, inhibitors).
Settings: not given
Type of data set: biochemical, Pseudomonas sp. AM-9582. Here is the method:
It is active in a pH range from about 6 to 11, but the optimum pH is about 8 (under the reaction condition of 50° C. for 30 minutes, in 0.1M phosphate buffer).
It is active up to about 70° C., but the optimum temperature is about 55° C. under the reaction conditions of 0.1M mannose, 0.05M Tris buffer (pH 7.0) for 30 minutes.
(§1) Into 0.5 ml of a 0.1M phosphate buffer (pH 7.0) containing 0.2M mannose dissolved therein is added a suitable amount of the enzyme, the total volume is made up with water to 1.0 ml, and the reaction mixture is incubated at 50° C. The amount of fructose formed is determined by the cysteine-carbazole method. The amount of the enzyme forming 1 micromole of fructose per one minute under this condition is defined as one unit.
Consider `O=C[C@@H](O)[C@H](O)[C@H](O)CO` [D-arabinose], for which the “Substrate specificity (activity of the enzyme on the sugar)” value (“Substrate specificity” below) is reported as “not substantially”.

Regarding `C[C@@H](O)[C@H](O)[C@H](O)[C@@H](O)C=O` [D-fucose], the “Substrate specificity” value is “not substantially”.

On to `O=C[C@H](O)[C@@H](O)[C@H](O)[C@H](O)CO` [D-glucose], for which the “Substrate specificity” value was “not substantially”.

Regarding `O=C[C@@H](O)[C@@H](O)[C@H](O)CO` [D-lyxose], the “Substrate specificity” value is on record as “active”.

Consider `O=C[C@@H](O)[C@@H](O)[C@H](O)[C@H](O)CO` [D-mannose], for which the “Substrate specificity” value was “active”.

For the compound `C[C@@H](O)[C@@H](O)[C@H](O)[C@H](O)C=O` [D-rhamnose], the “Substrate specificity” value is listed as “not substantially”.

As to `O=C[C@H](O)[C@H](O)[C@H](O)CO` [D-ribose], the “Substrate specificity” value is recorded as “not substantially”.

On to `O=C[C@H](O)[C@@H](O)[C@H](O)CO` [D-xylose], for which the “Substrate specificity” value is “not substantially”.

Turning to `O=C[C@H](O)[C@@H](O)[C@@H](O)CO` [L-arabinose], the “Substrate specificity” value is given as “not substantially”.

For the compound `C[C@H](O)[C@@H](O)[C@@H](O)[C@H](O)C=O` [L-fucose], the “Substrate specificity” value was “not substantially”.

Consider `C[C@H](O)[C@H](O)[C@@H](O)[C@@H](O)C=O` [L-rhamnose], for which the “Substrate specificity” value was “not substantially”.

For the compound `O=C[C@@H](O)[C@H](O)[C@@H](O)CO` [L-xylose], the “Substrate specificity” value is reported as “not substantially”.

Still in this data set, the particulars now being: 5×10^-3 M of inhibitor.
Regarding `O=[N+]([O-])[O-].[Ag+]` [AgNO3], the “Inhibition of the enzyme” value is reported as “strongly inhibited”.

Take `[Cl][Al]([Cl])[Cl]` [AlCl3]: the “Inhibition of the enzyme” value was “strongly inhibited”.

With `O=S(=O)([O-])[O-].[Fe+2]` [FeSO4], the “Inhibition of the enzyme” value is “strongly inhibited”.

Regarding `[Cl][Hg][Cl]` [HgCl2], the “Inhibition of the enzyme” value is “strongly inhibited”.

Take `O=C(O)c1cc[c]([Hg][Cl])cc1` [p-chloromercury benzoate]: the “Inhibition of the enzyme” value is “strongly inhibited”.

Another data set relates to mannose isomerase. Nature of the data set: thermal and pH stability of the enzyme of the invention (residual activity). In kind it is physicochemical, Pseudomonas sp. AM-9582. As to conditions: presence of calcium ions. The protocol: The residual activities after heating treatment at 60° C. for 5, 10, 15, 20, 30 minutes in 0.05M Tris buffer (pH 7.0) are, about 90%, 68%, 52%, 42%, 30% respectively.
The residual activity was measured after the enzyme was incubated in 0.1M buffer (acetate or phosphate buffer) of various pH at room temperature (25° C.) for 3 hours. As the result, it is stable in the pH range 6 to 9.
as §1
In the case of `[Ca+2]` [calcium ions], the “Effect on thermal stability of the enzyme” value is “increases the thermal stability”.

The next data set has as its system Salmonella.
Assay: not given
As to conditions: cited from earlier work.
In the case of `O=C[C@@H](O)[C@@H](O)[C@H](O)[C@H](O)CO` [D-mannose], the “Growth of Salmonella” value is listed as “inhibits the growth”.
